Measured values taken from patent US12466816B2, “Fused cyclic compound capable of degrading protein and use thereof” (Medshine Discovery Inc., priority 2019, dated 2025).

How the values were obtained:
[1] = test system: colorectal cancer cells and brain tumor cell lines; test: Clone formation experiment; format: cell-based; conditions: 10 μM; some colorectal cancer cells and brain tumor cell lines
Experimental: The effect of the compound on the monoclone-formation capacity of cells was examined. Cells were seeded in 6-well plates at low density (about 500 cells per well), 10 μM of WX106 was added for treatment, crystal violet staining (Beyotime Biotechnology, C0121) was performed when the cells grew into clones visible to the naked eye, and the number of clones was counted. All treatments were performed in at least three replicates.

Hep3B cells = test: Sensitivity of wild-type versus CRBN KO cells to WX106 (CCK-8); format: cell-based; conditions: 10 μM, 72 h
Experimental: (§1) The sgRNA sequence targeting CRBN was inserted into lenti Crispr V2 plasmid, the virus was co-packaged with the packaging vectors psPAX2 and pVSVG, and the cells were infected; screening was performed with puromycin (Invitrogen, A1113803) and the knockout of CRBN was identified by Western blot; finally, the cell growth was detected to calculate the survival rate.
WX106 (10 μM) was added to wild-type Hep3B cells and Hep3B CRBN KO (knockout) hybrid clone cells, respectively, and cell proliferation was detected by CCK-8 after 72 h.

MM.1S cells = test: Sensitivity of MM.1S versus low-CRBN-expression MM.1S-p5000 cells to WX106 (CCK-8); format: cell-based; conditions: 10 μM, 72 h, MM.1S-p5000 versus MM.1S
Experimental: WX106 (10 μM) was added to MM.1S cells and MM.1S-p5000 (Poma-resistant low-CRBN-expression cell line) cells, respectively, and cell proliferation was detected by CCK-8 after 72 h.

Hep3B and SNU182 cells = test: Growth curves of stable CRBN knockout cell lines (pool); format: cell-based; conditions: 10 μM
Experimental: as §1
Stable CRBN knockout cell lines (pool) were established in Hep3B and SNU182 cells, respectively, and treated with WX106 (10 μM) or solvent; the growth of cells was detected at different time points and the growth curves were drawn.

CRBN [2] = biological target: T1, CRBN (Homo sapiens, UniProt Q96SW2); test: Thermal displacement experiment (CRBN thermal stability, Western blot); format: binding; design: endogenous in cells; conditions: 100 μM, 293T cell lysates, 56° C. and 59° C.
Experimental: The experiment utilizes the principle that the binding of small molecular compounds to proteins can improve the thermal stability of proteins. 3×10^7 cells were collected and washed twice with phosphate buffered saline (PBS). 100×protease inhibitor cocktail (APEXBIO, K1007) was added to pre-cooled PBS to suspend the cells, and 500 μL of cell suspension was aliquoted into each 1.5 EP tube. The EP tube was placed in liquid nitrogen for quick freezing for 5 min and then transferred to a 26° C. water bath quickly; thereafter, the EP tube was transferred to a 4° C. environment when the liquid is half thawed, until it is completely thawed. This freeze-thaw procedure was performed thrice to allow complete protein precipitation from the cells. The frozen-thawed product was centrifuged at 4° C. for 20 min, the supernatant was aspirated and mixed, and then aliquoted into 1.5 mL EP tubes, and DMSO and WX106 were added respectively to adjust the concentration of WX106 in the solution to 100 μM. […] After the heat shock at all temperatures, the DMSO- and WX106-treated samples at each temperature were collected respectively, centrifuged at 4° C. for 20 min, and the concentration of BCA protein (Thermo) was quantified; at the same time, Western blot was performed to detect the changes of CRBN (Anti-CRBN antibody, Sigma Company, HPA045910) protein content. […]

CRBN [3] = biological target: T1, CRBN; test: Protein degradation competition experiment (CC885-induced GSPT1 degradation); format: cell-based; design: endogenous in cells; host or cells: MOLT-4; conditions: MOLT-4 cells, co-treated with 10 nM CC885, 4 hours, Western blot
Experimental: MOLT-4 cells were co-treated with 0.1, 1 and 10 μM of WX106 and 10 nM of CC885 for 4 hours, and the protein level of GSPT1 was then detected by Western blot, with Poma (Pomalidomide, Selleck, S1567) acting as the positive control in the experiment. Cells were collected and denatured in protein loading buffer (50 mM Tris-HCL 2% SDS, 0.025% BPB, 1% β-mercaptoethanol, 10% glycerol) at 98° C. for 10 min. Proteins were separated by SDS-PAGE and transferred to a PVDF membrane (Millipore, IPVH00010), blocked with 5% skim milk (dissolved in TBST buffer), incubated with a primary antibody overnight at 4° C., and then incubated with a secondary antibody (Anti-rabbit IgG, HRP-linked Antibody, Cell Signaling, 7074S) at room temperature for 1 hour, and the bands on the membrane were detected by chemiluminescence (ECL chemiluminescence kit, Beyotime Biotechnology, P0018AM).

Wee1 [4] = biological target: T2, Wee1 (Homo sapiens, UniProt P30291); test: CRBN-dependent ubiquitin-mediated degradation of Wee1 (wild-type versus CRBN KO cells, Western blot); format: cell-based; design: endogenous in cells; host or cells: U87-MG
Experimental: 293T cells and 293T CRBN KO cells were treated with DMSO, 1 μM WX106, 10 μM WX106 alone or in combination with 10 μM MG132 for 16 h, the whole-cell lysates were collected, and Wee1 protein expression was detected using Western blot. […] U87-MG cells and U87-MG CRBN KO cells were treated with 10 μM WX106 or WX106 plus 10 μM MG132 for 16 h, and the level of Wee1 protein expression was detected using Western blot.

Wee1 [5] = biological target: T2, Wee1; test: Detection of protein degradation by the drug (Western blot); format: cell-based; design: endogenous in cells; host or cells: MOLT-4, U87-MG; conditions: 6 hours
Experimental: Cells were seeded in 6-well plates at a density of about 70%, and the compound WX106 of different concentrations (concentrations shown in the accompanying drawings) were added for 6 hours of treatment, and then the whole-cell lysates were collected for target protein detection. The antibody used was: (Wee1 (D10D2) Rabbit mAb, Cell Signaling, 13084S). To investigate whether drug-induced protein degradation occurs via the ubiquitin pathway, MG132 was used to block ubiquitin-mediated protein degradation. This method was also applied to 293T, MOLT-4, U87-MG, HCT116, and LN-229.
FIG. 13 and FIG. 14 show the effect of WX106 on Wee1 protein expression in MOLT-4 cells.

- CRBN protein abundance after heat shock (CRBN [2]): significantly increased
- effect on degradation of GSPT1 induced by CC885 (CRBN [3]): reversed
- level of Wee1 expression in CRBN-deficient cells (Wee1 [4]; 293T CRBN KO cells, 1 μM or 10 μM, 16 h): no significant change
- Wee1 degradation in wild-type cells (Wee1 [4]; 293T cells, 1 μM or 10 μM, 16 h): promoted Wee1 degradation
- pro-degradation effect on Wee1 when MG132 was added (Wee1 [4]; wild-type 293T cells, with 10 μM MG132, 16 h): absent
- pro-degradation effect on Wee1 (Wee1 [5]; HCT116 cells): weak pro-degradation effect
- pro-degradation effect on Wee1 (Wee1 [5]; U87-MG cells): significant pro-degradation effect
SMILES: Cc1ccc(C(=O)Nc2ccc3occ(C4CCC(=O)NC4=O)c3c2)cc1Cl (stereo not drawn) [WX106]
- clone formation [1]: inhibits clone formation
- sensitivity of cells to WX106 after CRBN knockout (Hep3B cells): significantly reduced
- sensitivity of cells to WX106 with low CRBN expression (MM.1S cells): significantly less sensitive
- sensitivity of cells with normal CRBN expression (growth curve) (Hep3B and SNU182 cells; Hep3B and SNU182): very sensitive
- growth rate of low-CRBN-expression cells compared with the solvent group (Hep3B and SNU182 cells; Hep3B and SNU182 CRBN knockout pools): no significant difference
